For assay [1], the target named is T1, Hdm2 protein (amino acids 2-185) (Homo sapiens, UniProt Q00987).
T1 construct: Hdm2 protein (amino acids 2-185)
In words: Fluorescence polarisation assay, inhibition of p53-Hdm2 interaction. Format: binding. The note with it: Hdm2 3 nM, Cy5-labelled p53-derived peptide 1 nM. The procedure:
Fluorescence Polarisation Assay
The inhibition of p53-Hdm2 interaction is measured by fluorescence polarization. Fluorescence polarization measures the rotational movement of molecules in a homogeneous suspension. For this assay, Hdm2 protein (amino acids 2-185) is combined with a Cy5-labelled p53-derived peptide optimised for Hdm2 binding (J. Med. Chem. 2000, 43, 3205-3208). Upon excitation of the Cy5 fluorescent ligand with linearly polarized light, the peptide rotates faster and emits light which is perpendicularly polarized. If the peptide is bound by Hdm2, rotation will slow down and the perpendicular component will decrease. Disruption of the formation of the peptide-Hdm2 complex due to an inhibitor molecule binding to the p53 binding site of Hdm2 results in faster rotation of the peptide. The ratiometric polarization assay readout is calculated from the parallel and perpendicular components of the fluorescence light with respect to the polarization of the excitation light.
The test is performed by combining 7 μl compounds diluted in dimethyl sulfoxide (DMSO) (10% final concentration) with 31.5 μl […] (final concentration 3 nM) in reaction buffer (PBS, 0.1% CHAPS, 1 mM DTT (dithiothreitol)). The solution is allowed to preincubate for 5 minutes at room temperature, followed by addition of 31.5 μl peptide in reaction buffer (final concentration 1 nM), and a further 5 minutes of incubation. A final volume of 20 μl (in triplicate) is distributed into small volume black 384-well plates (Greiner Bio-One GmbH, Frickenhausen, Germany). For measurement of samples, an Analyst AD multimode microplate reader (Molecular Devices Corporation, Sunnyvale, Calif., USA) with the following settings is used: Dichroic mirror 650 nm, Excitation 630 nm, Emission 695 nm. Raw values are expressed as percent of DMSO control, where background (reaction buffer with peptide but no Hdm2) is subtracted first from raw values. IC50 values are calculated by curve fitting using XLfit. If not specified, reagents were purchased from Sigma Chemical Co.
In general terms: Polarisation of emitted light reports the rotation of a fluorescent probe.

In assay [2] the target is T2, MDM4 protein (amino acids 2-185) (Homo sapiens, UniProt O15151).
T2 construct: MDM4 protein (amino acids 2-185), tagged with a C-terminal Biotin moiety
T2 sequence (O15151 2-185): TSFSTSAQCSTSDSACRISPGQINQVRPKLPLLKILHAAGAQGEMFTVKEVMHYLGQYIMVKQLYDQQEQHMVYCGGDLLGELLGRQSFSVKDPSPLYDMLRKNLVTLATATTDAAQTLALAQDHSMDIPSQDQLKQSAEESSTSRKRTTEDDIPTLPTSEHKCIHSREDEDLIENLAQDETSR
Put plainly: Time resolved fluorescence energy transfer (TR-FRET) assay, inhibition of p53-Hdm4 interaction. In kind it is binding. As to conditions: MDM4-Bio 10 nM, Cy5-p53 peptide 20 nM. The method, then:
Time Resolved Fluorescence Energy Transfer (TR-FRET) Assay
The inhibition of p53-Hdm4 interaction is measured by time resolved fluorescence energy transfer (TR-FRET). Fluorescence energy transfer (or Foerster resonance energy transfer) describes an energy transfer between donor and acceptor fluorescent molecules. For this assay, MDM4 protein (amino acids 2-185), tagged with a C-terminal Biotin moiety, is used in combination with a Europium labeled streptavidin (Perkin Elmer, Inc., Waltham, Mass., USA) serving as the donor fluorophore. The p53 derived, Cy5 labeled peptide Cy5-TFSDLWKLL (p53 aa18-26) is the energy acceptor. Upon excitation of the donor molecule at 340 nm, binding interaction between MDM4 and the p53 peptide induces energy transfer and enhanced response at the acceptor emission wavelength at 665 nm. Disruption of the formation of the p53-MDM4 complex due to an inhibitor molecule binding to the p53 binding site of MDM4 results in increased donor emission at 615 nm. The ratiometric FRET assay readout is calculated from the raw data of the two distinct fluorescence signals measured in time resolved mode (countrate 665 nm/countrate 615 nm×1000).
The test is performed in white 1536w microtiterplates (Greiner Bio-One GmbH, Frickenhausen, Germany) in a total volume of 3.1 μl by combining 100 nl of compounds diluted in 90% DMSO/10% H2O (3.2% final DMSO concentration) with 2 μl Europium labeled streptavidin (final concentration 2.5 nM) in reaction buffer (PBS, 125 mM NaCl, 0.001% Novexin (consists of carbohydrate polymers (Novexin polymers), designed to increase the solubility and stability of proteins; Novexin Ltd., Cambridgeshire, United Kingdom), Gelatin 0.01%, 0.2% Pluronic (block copolymer fromethylenoxide and propyleneoxide, BASF, Ludwigshafen, Germany), 1 mM DTT), followed by the addition of 0.5 μl MDM4-Bio diluted in assay buffer (final concentration 10 nM). Allow the solution to pre-incubate for 15 minutes at room temperature, followed by addition of 0.5 μl Cy5-p53 peptide in assay buffer (final concentration 20 nM). Incubate at room temperature for 10 minutes prior to reading the plate. For measurement of samples, an Analyst GT multimode microplate reader (Molecular Devices) with the following settings is used: Dichroic mirror 380 nm, Excitation 330 nm, Emission Donor 615 nm and Emission Acceptor 665 nm. IC50 values are calculated by curve fitting using XLfit. If not specified, reagents are purchased from Sigma Chemical Co, St. Louis, Mo., USA.
A general note: Time-resolved FRET reads energy transfer from a long-lived donor to a nearby acceptor.

T1 sequence (Q00987 2-185): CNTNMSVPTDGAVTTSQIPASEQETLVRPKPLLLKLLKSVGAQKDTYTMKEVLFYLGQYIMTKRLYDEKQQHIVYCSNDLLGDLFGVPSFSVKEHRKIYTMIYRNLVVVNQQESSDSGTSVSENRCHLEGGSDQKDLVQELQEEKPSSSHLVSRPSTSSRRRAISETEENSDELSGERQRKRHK

As usually defined, the IC50 is the concentration that inhibits the measured activity by half. As for `OCc1cc(Cl)ccc1Cn1cnc(-c2ccccc2)c1-c1c[nH]c2cc(Cl)c(F)cc12` [Example 148], the IC50 in assay [1] came to 0.11 µM; in assay [2], 55.3 µM.
Taken in the same sequence, the figures for `Fc1cc2c(-c3c(-c4ccccc4)ncn3Cc3ccc4cc[nH]c4c3)c[nH]c2cc1Cl` [Example 135] were 7.2 µM and 68.3 µM.
The corresponding values for `O=C(CN1CCN(CCNC(=O)c2[nH]c3cc(Cl)ccc3c2-c2c(-c3ccccc3)ncn2Cc2ccc(Cl)cc2)CC1)Nc1cccnc1` [Example 271] are 0.3 µM and 54.9 µM.
The corresponding values for `Oc1cccc(-c2ncn(Cc3ccc(Cl)cc3)c2-c2c[nH]c3cc(Cl)c(F)cc23)c1` [Example 142, 3-[1-(4-Chloro-benzyl)-5-(6-chloro-5-fluoro-1H-indol-3-yl)-1H-imidazol-4-yl]-phenol] are 0.64 µM and 43.4 µM.
For the compound `O=C(NCCN1CCN(Cc2ccccn2)C1=O)c1[nH]c2cc(Cl)ccc2c1-c1c(-c2ccccc2)ncn1Cc1ccc(Cl)cc1` [Example 328, 6-Chloro-3-[3-(4-chloro-benzyl)-5-phenyl-3H-imidazol-4-yl]-1H-indole-2-carboxylic acid [2-(2-oxo-3-pyridin-2-ylmethyl-imidazolidin-1-yl)-ethyl]-amide], the IC50 in assay [1] stood at 0.19 µM; in assay [2], 63.7 µM.

Values taken from patent US8053457B2, “3-imidazolyl-indoles for the treatment of proliferative diseases” (Novartis AG, priority 2007, dated 2011).
